Laboratory results from patent publication US20230043678A1, “USE OF 5-METHYLTETRAHYDROFOLATE” (priority 2019, published 2023).
Where two headings read alike, the source gives them in different places.

Key:
zebrafish embryos = conditions: 6 mM FA
Protocol: Transgenic zebrafish (fli-1:EGFP) were from the Model Animal Research Center of Nanjing University. Adult zebrafish aged less than 1 were used for experiment and fed at a water pH value of 7±0.2, a temperature around 28° C. and a ratio of illumination to darkness of 14 h:10 h, and with Artemia salina eggs twice a day. Three zebrafish, one female, two males, were placed in a spawning box the night before and eggs were collected the next morning. Fish eggs were placed in an embryo culture medium (prepared with 0.2 g/L of sea salt) and cultured at 28° C. […] Dead embryos were cleaned up in time. Each experiment was conducted in triplicate. […] A phenotype of malformation was observed, the number of all abnormal zebrafish where the malformation was present was recorded and a malformation rate and a rescue rate of each group were calculated. Morphological defects, a heart rate, cardiac morphology and other indicators were observed and evaluated by an SMZ745T inverted stereomicroscope.

fetal rat heart = assay: Effect of folic acid on fetal rat heart under pharmacological dose (Example 9); assay type: in vivo, rats
Protocol: In order to investigate an effect of folic acid on fetal rat heart under pharmacological dose, 6 folic acid groups and a blank control group were divided in the experiment, the folic acid groups were divided into a folic acid group 1 (4.555 mg/kg/d), a folic acid group 2 (2.2775 mg/kg/d), a folic acid group 3 (0.911 mg/kg/d), a folic acid group 4 (0.4555 mg/kg/d), a folic acid group 5 (0.22775 mg/kg/d) and a folic acid group 6 (0.113875 mg/kg/d). The folic acid groups and the blank control group consisted of 4 pregnant mice each. The pregnant mice in the folic acid group 1 (4.555 mg/kg/d), the folic acid group 2 (2.2775 mg/kg/d) and the folic acid group 3 (0.911 mg/kg/d) were intraperitoneally injected, the pregnant mice in the folic acid group 4 (0.4555 mg/kg/d), the folic acid group 5 (0.22775 mg/kg/d) and the folic acid group 6 (0.113875 mg/kg/d) were intragastrically administrated, and the pregnant mice in the blank control group were naturally fed. After the female rats were administrated for 7 days, male and female rats were mated in a cage at a ratio of 1:1 overnight, a vaginal plug was checked the next morning, a day when the vaginal plug was found was regarded as day 0 of pregnancy, the pregnant mice were separately fed and administrated for 21 consecutive days, a fetus was obtained by cesarean section, and the number of fetal rats in each group was shown in FIG. 30. Fetal rat hearts were taken for a pathological examination and the results were as follows.

[1] = Group 1: folic acid 4.555 mg/kg/d intraperitoneal
[2] = Group 2: folic acid 2.2775 mg/kg/d intraperitoneal
[3] = Group 3: folic acid 0.911 mg/kg/d intraperitoneal
[4] = Group 4: folic acid 0.4555 mg/kg/d intragastric
[5] = Group 5: folic acid 0.22775 mg/kg/d intragastric
[6] = Group 6: folic acid 0.113875 mg/kg
[7] = Group 6: folic acid 0.113875 mg/kg/d intragastric

Structure (SMILES): Nc1nc2ncc(CNc3ccc(C(=O)N[C@@H](CCC(=O)O)C(=O)O)cc3)nc2c(=O)[nH]1 [FA, pteroylglutamic acid]
- 10 s heart rate (48 hpf) and body length (72 hpf) (zebrafish embryos): seriously led to bradycardia and a shortened body length of zebrafish
- survival rate of zebrafish (zebrafish embryos; 2-72 hpf): severely led to a low survival rate of zebrafish
- embryo development (zebrafish embryos; 8 hpf): delayed development of the zebrafish embryos
- embryo phenotype (zebrafish embryos; 24 hpf): led to small heads and short tails of zebrafish
- embryo phenotype (zebrafish embryos; 48 hpf): led to pericardium edema, dyspigmentation, and intersegmental vascular hypoplasia of zebrafish
- pericardium edema (zebrafish embryos; 48 hpf): seriously led to pericardium edema of zebrafish
- embryo phenotype (zebrafish embryos; 72 hpf): led to developmental disorders of lower intestinal network blood vessels of the zebrafish
- Atrioventricular defects/septal defects (fetal rat heart; [1]): 3
- Development delay (fetal rat heart; [1]): 1
- Malformation cases (fetal rat heart; [1]): 4
- Malformation rate (fetal rat heart; [1]): 12.9%
- Sparse myocardial trabeculae (fetal rat heart; [1]): 0
- Atrioventricular defects/septal defects (fetal rat heart; [2]): 2
- Development delay (fetal rat heart; [2]): 2
- Malformation cases (fetal rat heart; [2]): 4
- Malformation rate (fetal rat heart; [2]): 12.1%
- Sparse myocardial trabeculae (fetal rat heart; [2]): 0
- Atrioventricular defects/septal defects (fetal rat heart; [3]): 1
- Development delay (fetal rat heart; [3]): 2
- Malformation cases (fetal rat heart; [3]): 3
- Malformation rate (fetal rat heart; [3]): 11.5%
- Sparse myocardial trabeculae (fetal rat heart; [3]): 0
- Atrioventricular defects/septal defects (fetal rat heart; [4]): 5
- Development delay (fetal rat heart; [4]): 0
- Malformation cases (fetal rat heart; [4]): 5
- Malformation rate (fetal rat heart; [4]): 17.2%
- Sparse myocardial trabeculae (fetal rat heart; [4]): 0
- Atrioventricular defects/septal defects (fetal rat heart; [5]): 5
- Development delay (fetal rat heart; [5]): 0
- Malformation cases (fetal rat heart; [5]): 5
- Malformation rate (fetal rat heart; [5]): 15.2%
- Sparse myocardial trabeculae (fetal rat heart; [5]): 0
- atrial walls defective (number of individuals) (fetal rat heart; [6]): 1
- ventricular septal defects (number of individuals) (fetal rat heart; [6]): 3
- Atrioventricular defects/septal defects (fetal rat heart; [7]): 4
- Development delay (fetal rat heart; [7]): 1
- Malformation cases (fetal rat heart; [7]): 4
- Malformation rate (fetal rat heart; [7]): 9.5%
- Sparse myocardial trabeculae (fetal rat heart; [7]): 0
